Bounds are passed on as bounds.

What all share (format): functional
Holding throughout (conditions): Homo sapiens, read-out: ED50 (the source's name)

Assay [1] has as its system CCRF-CEM. The experiment in a line: In vitro concentration required to decrease 50% of mitochondrial DNA content in CEM cells.
For assay [2], the system named is CCRF-CEM. The experiment in a line: In vitro concentration required to inhibit 50% of CEM cell growth.
Assay [3] has as its system HepG2. The experiment in a line: Concentration required to inhibit 50% of extracellular circular replication of HBV DNA using 2215 cell line.
In assay [4] the test system is MT2. The experiment in a line: Concentration required to inhibit 50% of HIV activity in MT-2 cells.
The subject of assay [5] is HepG2. The experiment in a line: Concentration required to inhibit 50% of intracellular circular replication of HBV DNA using 2215 cell line.

Regarding `Nc1ccn([C@@H]2C=C[C@H](CO)O2)c(=O)n1`, the EC50 in assay [1] worked out at 2000 nM; in assay [2], 22000 nM; in assay [3] it was 3000 nM; in assay [4], 700 nM.

`Nc1nc(=O)n([C@@H]2CS[C@H](CO)O2)cc1F` [EMTRICITABINE]: the EC50 in assay [1] was over 50000 nM; in assay [5], 30 nM; in assay [2], 50000 nM; in assay [3], 17 nM; in assay [4], 2000 nM.

As for `Nc1ccn([C@@H]2CC[C@H](CO)O2)c(=O)n1`, the EC50 stood at 22 nM in assay [1]; 6200 nM in assay [5]; 10000 nM in assay [2]; 5200 nM in assay [3]; 1500 nM in assay [4].

`Nc1ccn([C@H]2C=C[C@@H](CO)O2)c(=O)n1`: the EC50 in assay [1] was over 20000 nM; in assay [5] it was 8 nM; in assay [2], 20000 nM; in assay [3], 10 nM; in assay [4], 1000 nM.

For `Nc1nc(=O)n([C@@H]2C=C[C@H](CO)O2)cc1F` [ELVUCITABINE], the EC50 in assay [1] was over 100000 nM; in assay [5], 2 nM; in assay [2] it was 7000 nM; in assay [3], 2 nM; in assay [4], 90 nM.

For `Nc1nc(=O)n([C@@H]2CC[C@H](CO)O2)cc1F`, the EC50 in assay [1] is over 100000 nM; in assay [5], 36 nM; in assay [2], 67000 nM; in assay [3], 55 nM; in assay [4], 500 nM.

(Values after ChEMBL document CHEMBL1129064, “Design and synthesis of 2',3'-dideoxy-2',3'-didehydro-beta-L-cytidine (beta-L-d4C) and 2',3'-dideoxy 2',3'-didehydro-beta-L-5-fluorocytidine (beta-L-Fd4C), two exceptionally potent inhibitors of human hepatitis B virus (HBV) and potent inhibitors of human immunodeficiency virus (HIV) in vitro” (1996).)
